pKi: −log10 of the molar value.
How the values were obtained:
Test in all cases: Radioligand binding assay
[1] = molecular target: 5-HT1A serotonin receptors (Homo sapiens, UniProt P08908)
Description: (§1) The activity of nepicastat at twelve selected enzymes and receptors was determined using established assays. Details of individual receptor radioligand binding assays can be found in Wong et al (1993). Binding data were analyzed by iterative curve-fitting to a four parameter logistic equation. Ki values were calculated from IC50 values using the Cheng-Prusoff equation. Enzyme inhibitory activity was expressed as IC50 (concentration required to produce 50% inhibition of enzyme activity). Male SHRs (15-16 weeks old, Charles River, Wilmington, Mass., USA) were used in the study. On the day of the study, animals were weighed and randomly assigned to be dosed with either vehicle (control) or the appropriate dose of nepicastat (3, 10, 30 or 100 mg.kg^−1, po) or (R)-5-Aminomethyl-1-(5,7-difluoro-1,2,3,4-tetrahydronaphth-2-yl)-2,3-dihydro-2-thioxo-1H-imidazole hydrochloride (30 mg.kg^−1, po) three consecutive times, twelve hours apart. At six hours after the third dose, the rats were anaesthetized with halothane, decapitated and tissues (cerebral cortex, mesenteric artery and left ventricle) were rapidly harvested, weighed, placed in iced perchloric acid (0.4 M), frozen in liquid nitrogen and stored at −70° C. until subsequent analysis. To quantify noradrenaline and dopamine concentrations, tissues were homogenized by brief sonication and centrifuged at 13,000 rpm for 30 minutes at 4° C. The supernatant, spiked with 3,4-dihydroxybenzylamine (internal standard), was assayed for noradrenaline and dopamine by HPLC using electrochemical detection.
(§2) In vitro assay of selected enzymes and neurotransmitter receptors. The activity of 2a at eleven different enzymes was determined using established assays (PanLabs Inc, Foster City, Calif.). The affinity of 2a for thirteen selected receptors was determined by radioligand binding assays using standard filtration techniques and membrane preparations. Binding data were analyzed by iterative curve fitting to a four parameter logistic equation. Ki values were calculated using the Cheng-Prusoff equation.

[2] = molecular target: 5-HT2A serotonin receptors (Homo sapiens, UniProt P28223)
Sequence of 5-HT2A serotonin receptors (P28223 whole entry): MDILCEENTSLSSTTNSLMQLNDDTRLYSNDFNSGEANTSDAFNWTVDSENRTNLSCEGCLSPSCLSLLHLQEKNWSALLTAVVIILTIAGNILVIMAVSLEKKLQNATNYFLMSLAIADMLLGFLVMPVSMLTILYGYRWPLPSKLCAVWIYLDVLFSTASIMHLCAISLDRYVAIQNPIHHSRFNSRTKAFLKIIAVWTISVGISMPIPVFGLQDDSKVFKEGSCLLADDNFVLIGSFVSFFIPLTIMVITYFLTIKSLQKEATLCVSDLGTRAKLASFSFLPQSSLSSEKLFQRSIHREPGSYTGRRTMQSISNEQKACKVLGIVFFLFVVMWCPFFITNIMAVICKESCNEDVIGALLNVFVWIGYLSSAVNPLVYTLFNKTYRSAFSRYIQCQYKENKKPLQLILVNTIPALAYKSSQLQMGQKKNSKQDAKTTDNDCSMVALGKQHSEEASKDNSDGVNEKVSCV
Description: as §1, §2

[3] = molecular target: 5-HT2C serotonin receptors (Homo sapiens, UniProt P28335)
Description: as §1, §2

[4] = molecular target: D1 dopamine receptors (Homo sapiens, UniProt P21728)
Sequence of D1 dopamine receptors (P21728 whole entry): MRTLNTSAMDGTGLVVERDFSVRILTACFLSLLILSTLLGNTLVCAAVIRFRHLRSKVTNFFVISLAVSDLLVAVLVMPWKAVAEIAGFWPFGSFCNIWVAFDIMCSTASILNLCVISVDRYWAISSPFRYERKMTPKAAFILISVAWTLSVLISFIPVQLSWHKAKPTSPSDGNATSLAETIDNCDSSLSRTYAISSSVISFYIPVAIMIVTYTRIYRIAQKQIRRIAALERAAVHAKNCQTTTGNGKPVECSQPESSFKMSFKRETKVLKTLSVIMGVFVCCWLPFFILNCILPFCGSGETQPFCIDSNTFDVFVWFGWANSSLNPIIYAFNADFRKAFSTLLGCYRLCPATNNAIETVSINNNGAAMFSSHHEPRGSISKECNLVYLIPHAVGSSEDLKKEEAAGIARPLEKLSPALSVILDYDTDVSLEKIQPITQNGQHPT
Description: as §1, §2

[5] = molecular target: D2 dopamine receptors (Homo sapiens, UniProt P14416)
Sequence of D2 dopamine receptors (P14416 whole entry): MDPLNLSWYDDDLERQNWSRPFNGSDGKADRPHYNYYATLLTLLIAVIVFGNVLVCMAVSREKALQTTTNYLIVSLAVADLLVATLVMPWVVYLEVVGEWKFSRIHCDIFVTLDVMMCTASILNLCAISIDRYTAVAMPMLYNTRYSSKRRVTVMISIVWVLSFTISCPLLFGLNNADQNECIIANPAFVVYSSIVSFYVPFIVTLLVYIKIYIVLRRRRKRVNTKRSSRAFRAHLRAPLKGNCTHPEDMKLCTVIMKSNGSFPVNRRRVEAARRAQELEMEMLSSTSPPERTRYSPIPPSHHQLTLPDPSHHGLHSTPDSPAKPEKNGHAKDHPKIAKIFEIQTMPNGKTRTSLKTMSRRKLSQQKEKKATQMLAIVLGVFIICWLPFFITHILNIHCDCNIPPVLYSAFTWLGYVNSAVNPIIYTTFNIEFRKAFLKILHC
Description: as §1, §2

[6] = molecular target: M1 muscarinic receptors (Homo sapiens, UniProt P11229)
Sequence of M1 muscarinic receptors (P11229 whole entry): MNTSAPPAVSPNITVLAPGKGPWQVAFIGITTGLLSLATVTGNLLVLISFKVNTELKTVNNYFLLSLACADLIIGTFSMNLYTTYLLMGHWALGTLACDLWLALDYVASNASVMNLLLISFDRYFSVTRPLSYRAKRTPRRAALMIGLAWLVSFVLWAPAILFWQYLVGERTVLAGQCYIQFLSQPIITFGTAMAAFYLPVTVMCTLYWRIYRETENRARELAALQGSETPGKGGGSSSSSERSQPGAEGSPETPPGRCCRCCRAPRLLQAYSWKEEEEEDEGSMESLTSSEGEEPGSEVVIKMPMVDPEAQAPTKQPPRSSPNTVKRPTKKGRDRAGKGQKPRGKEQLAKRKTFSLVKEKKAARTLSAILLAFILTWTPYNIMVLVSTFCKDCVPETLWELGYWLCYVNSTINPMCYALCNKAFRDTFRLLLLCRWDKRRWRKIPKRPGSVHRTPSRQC
Description: as §1, §2

[7] = molecular target: α2A adrenoceptors (Homo sapiens, UniProt P08913)
Sequence of α2A adrenoceptors (P08913 whole entry): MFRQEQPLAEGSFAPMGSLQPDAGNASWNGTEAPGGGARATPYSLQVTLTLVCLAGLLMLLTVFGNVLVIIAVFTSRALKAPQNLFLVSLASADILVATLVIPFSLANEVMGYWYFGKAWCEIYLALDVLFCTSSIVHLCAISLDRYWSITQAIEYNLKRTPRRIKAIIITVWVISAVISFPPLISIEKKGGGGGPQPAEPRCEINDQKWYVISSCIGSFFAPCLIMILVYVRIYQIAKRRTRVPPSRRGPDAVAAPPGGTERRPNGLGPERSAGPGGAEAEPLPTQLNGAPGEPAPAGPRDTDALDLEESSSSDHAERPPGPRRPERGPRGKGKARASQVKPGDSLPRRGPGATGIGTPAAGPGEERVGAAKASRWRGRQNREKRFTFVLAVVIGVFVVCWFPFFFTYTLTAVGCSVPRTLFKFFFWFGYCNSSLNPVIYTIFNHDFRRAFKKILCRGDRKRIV
Description: as §1, §2

[8] = molecular target: α2B adrenoceptors (Homo sapiens, UniProt P18089)
Sequence of α2B adrenoceptors (P18089 whole entry): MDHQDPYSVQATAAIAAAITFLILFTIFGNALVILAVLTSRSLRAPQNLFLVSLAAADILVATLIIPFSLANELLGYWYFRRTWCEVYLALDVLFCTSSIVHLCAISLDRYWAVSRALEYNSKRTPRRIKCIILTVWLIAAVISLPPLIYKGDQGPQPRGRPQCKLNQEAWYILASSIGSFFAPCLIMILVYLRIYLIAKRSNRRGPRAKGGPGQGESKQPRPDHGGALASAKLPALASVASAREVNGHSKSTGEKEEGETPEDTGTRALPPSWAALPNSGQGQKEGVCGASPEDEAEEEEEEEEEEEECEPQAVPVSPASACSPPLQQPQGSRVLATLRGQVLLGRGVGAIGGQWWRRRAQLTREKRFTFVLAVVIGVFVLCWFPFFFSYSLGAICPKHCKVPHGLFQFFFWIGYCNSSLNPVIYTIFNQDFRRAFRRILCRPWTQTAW
Description: as §1, §2

[9] = molecular target: β1 adrenoceptors (Homo sapiens, UniProt P08588)
Sequence of β1 adrenoceptors (P08588 whole entry): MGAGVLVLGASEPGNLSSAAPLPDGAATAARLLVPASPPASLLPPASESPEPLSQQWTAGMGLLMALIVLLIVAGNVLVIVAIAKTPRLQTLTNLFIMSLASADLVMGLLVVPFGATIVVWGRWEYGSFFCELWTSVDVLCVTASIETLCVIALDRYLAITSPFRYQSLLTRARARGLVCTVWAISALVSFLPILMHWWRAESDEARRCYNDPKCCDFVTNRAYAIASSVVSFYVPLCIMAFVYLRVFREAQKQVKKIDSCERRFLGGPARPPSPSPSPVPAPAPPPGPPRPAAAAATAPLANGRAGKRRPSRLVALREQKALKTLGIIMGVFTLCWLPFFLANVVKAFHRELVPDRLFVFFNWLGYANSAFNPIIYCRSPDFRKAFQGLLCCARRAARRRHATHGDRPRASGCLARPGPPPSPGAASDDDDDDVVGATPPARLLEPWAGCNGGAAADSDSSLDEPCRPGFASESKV
Description: as §1, §2

[10] = molecular target: β2 adrenoceptors (Homo sapiens, UniProt P07550)
Sequence of β2 adrenoceptors (P07550 whole entry): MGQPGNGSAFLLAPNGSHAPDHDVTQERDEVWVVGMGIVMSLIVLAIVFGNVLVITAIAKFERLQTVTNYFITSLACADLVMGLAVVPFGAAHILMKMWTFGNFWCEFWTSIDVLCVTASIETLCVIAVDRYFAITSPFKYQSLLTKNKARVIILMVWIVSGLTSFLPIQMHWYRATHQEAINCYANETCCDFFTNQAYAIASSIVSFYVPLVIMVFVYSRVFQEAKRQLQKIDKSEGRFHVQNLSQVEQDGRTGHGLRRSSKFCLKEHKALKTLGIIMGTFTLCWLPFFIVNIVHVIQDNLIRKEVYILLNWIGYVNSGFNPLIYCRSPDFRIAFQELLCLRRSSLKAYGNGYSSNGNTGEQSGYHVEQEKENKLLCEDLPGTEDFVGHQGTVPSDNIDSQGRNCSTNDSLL
Description: as §1, §2

[11] = molecular target: μ opioid receptors (Homo sapiens, UniProt P35372)
Sequence of μ opioid receptors (P35372 whole entry): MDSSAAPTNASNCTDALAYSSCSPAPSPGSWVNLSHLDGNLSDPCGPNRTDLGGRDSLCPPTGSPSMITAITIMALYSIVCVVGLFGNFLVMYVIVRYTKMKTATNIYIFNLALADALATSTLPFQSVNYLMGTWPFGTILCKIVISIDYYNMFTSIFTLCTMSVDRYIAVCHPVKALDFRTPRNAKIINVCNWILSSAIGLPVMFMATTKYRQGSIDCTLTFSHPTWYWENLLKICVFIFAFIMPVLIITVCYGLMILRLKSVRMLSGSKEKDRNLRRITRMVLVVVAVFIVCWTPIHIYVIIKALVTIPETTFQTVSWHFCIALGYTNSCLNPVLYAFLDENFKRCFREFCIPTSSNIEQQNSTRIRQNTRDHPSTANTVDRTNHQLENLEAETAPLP
Description: as §1, §2

[12] = molecular target: ⊕1B adrenoceptors (Homo sapiens, UniProt P35368)
Sequence of ⊕1B adrenoceptors (P35368 whole entry): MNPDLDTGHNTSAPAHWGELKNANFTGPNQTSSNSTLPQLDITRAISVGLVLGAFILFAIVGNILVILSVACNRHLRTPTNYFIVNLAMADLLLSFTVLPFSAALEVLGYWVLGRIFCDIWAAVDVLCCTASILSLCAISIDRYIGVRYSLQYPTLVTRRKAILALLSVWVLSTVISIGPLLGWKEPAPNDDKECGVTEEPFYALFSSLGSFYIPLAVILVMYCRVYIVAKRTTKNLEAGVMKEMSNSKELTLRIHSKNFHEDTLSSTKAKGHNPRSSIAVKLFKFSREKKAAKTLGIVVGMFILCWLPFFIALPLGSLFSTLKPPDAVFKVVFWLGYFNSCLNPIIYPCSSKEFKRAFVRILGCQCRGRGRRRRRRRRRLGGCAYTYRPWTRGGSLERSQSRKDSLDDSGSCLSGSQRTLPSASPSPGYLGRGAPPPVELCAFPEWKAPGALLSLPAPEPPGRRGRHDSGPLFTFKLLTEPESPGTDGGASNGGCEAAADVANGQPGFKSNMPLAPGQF
Description: as §1, §2

Measured: pKi

Sequence of 5-HT1A serotonin receptors (P08908 whole entry): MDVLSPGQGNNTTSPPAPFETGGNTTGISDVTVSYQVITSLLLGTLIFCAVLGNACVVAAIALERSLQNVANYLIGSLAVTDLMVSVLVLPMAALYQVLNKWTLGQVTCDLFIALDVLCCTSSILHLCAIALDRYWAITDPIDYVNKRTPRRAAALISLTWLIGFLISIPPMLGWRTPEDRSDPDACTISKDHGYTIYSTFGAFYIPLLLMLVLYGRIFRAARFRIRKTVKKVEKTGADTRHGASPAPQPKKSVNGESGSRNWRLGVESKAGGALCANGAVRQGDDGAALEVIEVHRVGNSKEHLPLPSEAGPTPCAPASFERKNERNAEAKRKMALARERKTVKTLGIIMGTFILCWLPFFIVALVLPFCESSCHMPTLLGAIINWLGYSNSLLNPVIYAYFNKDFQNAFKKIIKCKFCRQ

Cl.NCc1c[nH]c(=S)n1[C@H]1CCc2c(F)cc(F)cc2C1 [nepicastat, (S)-5-Aminomethyl-1-(5,7-difluoro-1,2,3,4-tetrahydronaphth-2-yl)-2,3-dihydro-2-thioxo-1H-imidazole hydrochloride]
< 5.00: all assays above

Source: US20090054403A1, “Treatment of Post-Traumatic Stress Disorder” (priority 2007, published 2009)
